Measured values as given in PMC3877268, “Reconstructed Ancestral Myo-Inositol-3-Phosphate Synthases Indicate That Ancestors of the Thermococcales and Thermotoga Species Were More Thermophilic than Their Descendants” (PLoS ONE, 2013).

Tests used:
Assay in all cases: periodate / malachite green phosphate assay, Lineweaver-Burk
Format in all cases: biochemical, synthetic construct
ACM_C1 = test system: T1, ACM_C1; settings: 15 mM NH4Cl, 10 mM imidazole-HCl pH 7.8, 95 °C (Topt)
T1 construct: gene by GenScript, pBAD TOPO, E. coli TOP10
Excerpt: periodate / malachite green phosphate assay, Lineweaver-Burk on ACM_C1

AAM_A1 = test system: T2, AAM_A1; settings: 15 mM NH4Cl, 10 mM imidazole-HCl pH 7.8, 99 °C (Topt)
T2 construct: gene by GenScript, pBAD TOPO, E. coli TOP10
Excerpt: periodate / malachite green phosphate assay, Lineweaver-Burk on AAM_A1

ACM_C2 = test system: T3, ACM_C2; settings: 15 mM NH4Cl, 10 mM imidazole-HCl pH 7.8, 95 °C (Topt)
T3 construct: gene by GenScript, pBAD TOPO, E. coli TOP10
Excerpt: periodate / malachite green phosphate assay, Lineweaver-Burk on ACM_C2

ATM_T4 = test system: T4, ATM_T4; settings: 15 mM NH4Cl, 10 mM imidazole-HCl pH 7.8, 83 °C (Topt)
T4 construct: reconstructed node T ancestor, one of four (125/126 Ser/Lys or Thr/Glu); gene by GenScript, pBAD TOPO, E. coli TOP10
Excerpt: periodate / malachite green phosphate assay, Lineweaver-Burk on ATM_T4

ATM_T3 = test system: T5, ATM_T3; settings: 15 mM NH4Cl, 10 mM imidazole-HCl pH 7.8, 85 °C (Topt)
T5 construct: reconstructed node T ancestor, one of four (125/126 Ser/Lys or Thr/Glu); gene by GenScript, pBAD TOPO, E. coli TOP10
Excerpt: periodate / malachite green phosphate assay, Lineweaver-Burk on ATM_T3

AAM_A2 = test system: T6, AAM_A2; settings: 15 mM NH4Cl, 10 mM imidazole-HCl pH 7.8, 99 °C (Topt)
T6 construct: gene by GenScript, pBAD TOPO, E. coli TOP10
Excerpt: periodate / malachite green phosphate assay, Lineweaver-Burk on AAM_A2

ATM_T1 = test system: T7, ATM_T1; settings: 15 mM NH4Cl, 10 mM imidazole-HCl pH 7.8, 90 °C (Topt)
T7 construct: reconstructed node T ancestor, one of four (125/126 Ser/Lys or Thr/Glu); gene by GenScript, pBAD TOPO, E. coli TOP10
Excerpt: periodate / malachite green phosphate assay, Lineweaver-Burk on ATM_T1

ATM_T2 = test system: T8, ATM_T2; settings: 15 mM NH4Cl, 10 mM imidazole-HCl pH 7.8, 83 °C (Topt)
T8 construct: reconstructed node T ancestor, one of four (125/126 Ser/Lys or Thr/Glu); gene by GenScript, pBAD TOPO, E. coli TOP10
Excerpt: periodate / malachite green phosphate assay, Lineweaver-Burk on ATM_T2

Km (ACM_C1): 2340 ± 460 µM
Km (AAM_A1): 2770 ± 600 µM
Km (ACM_C2): 6270 ± 1940 µM
Km (ATM_T4): 600 ± 60 µM
Km (ATM_T3): 540 ± 150 µM
Km (AAM_A2): 1320 ± 110 µM
Km (ATM_T1): 630 ± 100 µM
Km (ATM_T2): 460 ± 80 µM
SMILES: O=P(O)(O)OC[C@H]1OC(O)[C@H](O)[C@@H](O)[C@@H]1O (some centres unmarked) [glucose-6-phosphate]
